Laboratory results: patent US20230210790A1, “GEL FOR USE IN GASTROINTESTINAL ENDOSCOPY AND ENDODERMAL, EPIDERMAL, AND OTHER MUCOSAL USES” (The Johns Hopkins University, priority 2020, published 2023)

System: bleeding ulcers in a live porcine model
Test: In vivo bleeding control by injectable gel, porcine bleeding model
Parameters: species or system Yorkshire pigs
Details: 5 mL injected adjacent to bleeding ulcer
Experimental: To test the efficacy of epinephrine gels for bleeding control, a porcine bleeding model was created.
After ulcer creation, gel formulations or saline (negative control), epinephrine 1:10,000 (positive control) of 5 mL each were injected adjacent to the bleeding ulcer.

CNC[C@H](O)c1ccc(O)c(O)c1 [Epinephrine 1:10,000, Epinephrine]
No: Time at 5 min, bleeding present | Time at 10 min, bleeding present | Time at 15 min, bleeding present
